Experimental data taken from patent US10543212B2, “Substituted amines for treating cardiac diseases” (Cardurion Pharmaceuticals, LLC, priority 2017, dated 2020).

target: T1, Human full-length CaMKIIδ (Homo sapiens, UniProt Q13557); assay: Human CaMKII enzyme inhibition assay (radiometric kinase assay); format: biochemical; details: 3 μM compound; 500 nM ATP; 0.5 nM CaMKIIδ; read-out: CaMKIIδ inhibitory activity (%) at 3 μM
T1 construct: Human full-length CaMKIIδ (Cat #02-111) was obtained from Carna Biosciences; GST; purchased Carna Biosciences 02-111
Method: In Vitro CaMKIIδ Inhibitory Activity was Evaluated by an Enzyme Assay.
Human CaMKII Enzyme Inhibition Assay
Kinase assay for CaMKIIs was performed using the radiometric assay. Human full-length CaMKIIδ (Cat #02-111) was obtained from Carna Biosciences (Kobe, Japan).
Enzyme reactions were performed in 25 mM HEPES, pH 7.5, with 5 mM magnesium chloride, 1 mM calcium chloride, 10 μg/mL Calmodulin, 2 mM DTT, 0.01% Tween20 and 500 nM ATP (0.2 μCi/well of [γ-33P] ATP) containing 0.5 nM CaMKIIδ and 0.1 μM autophosphorylation peptide (KKALRRQETVDAL)(Toray Research Center).
After incubating the enzyme, peptide, and compounds for 5 min, kinase reactions were initiated by adding ATP, followed by incubation for 60 min at room temperature in a total volume of 50 μL. The reactions were terminated by the addition of 10% trichloroacetic acid (final concentration). The [γ-33P]-phosphorylated proteins were filtered in a Harvest Plate (Merck Millipore) with a Cell Harvester (PerkinElmer) and then free [γ-33P] ATP was washed out with 3% phosphoric acid. The plates were dried, followed by the addition of 40 μl of MicroScintO (PerkinElmer). The radioactivity was counted by a TopCount scintillation counter (PerkinElmer). The signals of the reaction without enzyme were defined as 100% inhibitory activity and those of the reaction without inhibitors as 0% inhibitory activity. In vitro CaMKIIδ inhibitory activity was evaluated by % inhibitory activity of 3 μM compound concentration.

First: COc1ccc(N2CCC(N3CCOCC3)CC2)cc1Nc1ncc(-c2ccc(Cl)c(O[C@@H](C)Cn3cnnn3)c2)cn1 [Example 214, 5-(4-chloro-3-(((2S)-1-(1H-tetrazol-1-yl)propan-2-yl)oxy)phenyl)-N-(2-methoxy-5-(4-(morpholin-4-yl)piperidin-1-yl)phenyl)pyrimidin-2-amine]
Second: Cc1nn(C)cc1Nc1ncc(-c2ccc(C#N)c(O[C@@H](C)Cn3cnnn3)c2)cn1 [Example 372, 4-(2-((1,3-dimethyl-1H-pyrazol-4-yl)amino)pyrimidin-5-yl)-2-(((2S)-1-(1H-tetrazol-1-yl)propan-2-yl)oxy)benzonitrile]
The inhibition at 3 µM of the first is higher: 100% for the first, 98% for the second.

Compared with `Cc1nn(C)cc1Nc1ncc(-c2ccc(C#N)c(O[C@@H](C)Cn3cncn3)c2)cn1` [Example 357, 4-(2-((1,3-dimethyl-1H-pyrazol-4-yl)amino)pyrimidin-5-yl)-2-(((2S)-1-(1H-1,2,4-triazol-1-yl)propan-2-yl)oxy)benzonitrile], `COc1nn(C)cc1Nc1ncc(-c2ccc(C#N)c(O[C@@H](C)Cn3cncn3)c2)cn1` [Example 375, 4-(2-((3-methoxy-1-methyl-1H-pyrazol-4-yl)amino)pyrimidin-5-yl)-2-(((2S)-1-(1H-1,2,4-triazol-1-yl)propan-2-yl)oxy)benzonitrile] is higher in inhibition at 3 µM: 96% for the first, 97% for the second.

Compared with `Cc1nn(C(C)C)cc1Nc1ncc(-c2ccc(C#N)c(O[C@@H](C)Cn3cncn3)c2)cn1` [Example 358, 4-(2-((1-isopropyl-3-methyl-1H-pyrazol-4-yl)amino)pyrimidin-5-yl)-2-(((2S)-1-(1H-1,2,4-triazol-1-yl)propan-2-yl)oxy)benzonitrile], `C[C@@H](Cn1cncn1)Oc1cc(-c2cnc(Nc3cn(C)nc3C(F)(F)F)nc2)ccc1C#N` [Example 376, 4-(2-((1-methyl-3-(trifluoromethyl)-1H-pyrazol-4-yl)amino)pyrimidin-5-yl)-2-(((2S)-1-(1H-1,2,4-triazol-1-yl)propan-2-yl)oxy)benzonitrile] is higher in inhibition at 3 µM: 93% for the first, 97% for the second.

`C[C@@H](Cn1cncn1)Oc1cc(-c2cnc(Nc3cnn(C4CC4)c3)nc2)ccc1C#N` [Example 361, 4-(2-((1-cyclopropyl-1H-pyrazol-4-yl)amino)pyrimidin-5-yl)-2-(((2S)-1-(1H-1,2,4-triazol-1-yl)propan-2-yl)oxy)benzonitrile] and `C[C@@H](Cn1cncn1)Oc1cc(-c2cnc(Nc3cnn(C(C)(C)C)c3)nc2)ccc1C#N` [Example 373, 4-(2-((1-tert-butyl-1H-pyrazol-4-yl)amino)pyrimidin-5-yl)-2-(((2S)-1-(1H-1,2,4-triazol-1-yl)propan-2-yl)oxy)benzonitrile] are the same in inhibition at 3 µM: 98% for the first, 98% for the second.

Going from `C[C@@H](Cn1cncn1)Oc1cc(-c2cnc(Nc3cnn(CC(F)(F)F)c3)nc2)ccc1C#N` [Example 362, 2-(((2S)-1-(1H-1,2,4-triazol-1-yl)propan-2-yl)oxy)-4-(2-((1-(2,2,2-trifluoroethyl)-1H-pyrazol-4-yl)amino)pyrimidin-5-yl)benzonitrile] to `C[C@@H](Cn1cncn1)Oc1cc(-c2cnc(Nc3cnn(CC(C)(C)C#N)c3)nc2)ccc1C#N` [Example 365, 4-(2-((1-(2-cyano-2-methylpropyl)-1H-pyrazol-4-yl)amino)pyrimidin-5-yl)-2-(((2S)-1-(1H-1,2,4-triazol-1-yl)propan-2-yl)oxy)benzonitrile], the inhibition at 3 µM rises from 97% to 98%.

First: CC(C)n1cc(Nc2ncc(-c3ccc(C#N)c(O[C@@H](C)Cn4ncnn4)c3)cn2)cn1 [Example 371, 4-(2-((1-isopropyl-1H-pyrazol-4-yl)amino)pyrimidin-5-yl)-2-(((2S)-1-(2H-tetrazol-2-yl)propan-2-yl)oxy)benzonitrile]
Second: C[C@@H](Cn1ncnn1)Oc1cc(-c2cnc(Nc3cnn(C)c3)nc2)ccc1C#N [Example 411, 4-(2-((1-methyl-1H-pyrazol-4-yl)amino)pyrimidin-5-yl)-2-(((2S)-1-(2H-tetrazol-2-yl)propan-2-yl)oxy)benzonitrile]
The inhibition at 3 µM of the first is higher: 94% for the first, 93% for the second.

First: CC(C)n1cc(Nc2ncc(-c3ccc(C#N)c(O[C@@H](C)Cn4cnnn4)c3)cn2)cn1 [Example 374, 4-(2-((1-isopropyl-1H-pyrazol-4-yl)amino)pyrimidin-5-yl)-2-(((2S)-1-(1H-tetrazol-1-yl)propan-2-yl)oxy)benzonitrile]
Second: C[C@@H](Cn1cnnn1)Oc1cc(-c2cnc(Nc3cnn(C)c3)nc2)ccc1C#N [Example 410, 4-(2-((1-methyl-1H-pyrazol-4-yl)amino)pyrimidin-5-yl)-2-(((2S)-1-(1H-tetrazol-1-yl)propan-2-yl)oxy)benzonitrile]
The inhibition at 3 µM of the first is lower: 97% for the first, 99% for the second.

`C[C@@H](Cn1cncn1)Oc1cc(-c2cnc(Nc3cn[nH]c3)nc2)ccc1C#N` [Example 379, 4-(2-(1H-pyrazol-4-ylamino)pyrimidin-5-yl)-2-(((2S)-1-(1H-1,2,4-triazol-1-yl)propan-2-yl)oxy)benzonitrile] and `C[C@@H](O)Cn1cc(Nc2ncc(-c3ccc(C#N)c(O[C@@H](C)Cn4cncn4)c3)cn2)cn1` [Example 416, 4-(2-((1-((2R)-2-hydroxypropyl)-1H-pyrazol-4-yl)amino)pyrimidin-5-yl)-2-(((2S)-1-(1H-1,2,4-triazol-1-yl)propan-2-yl)oxy)benzonitrile] are the same in inhibition at 3 µM: 98% for the first, 98% for the second.

First: C[C@@H](Cn1cnnn1)Oc1cc(-c2cnc(Nc3cn(C)nc3C(F)(F)F)nc2)ccc1C#N [Example 380, 4-(2-((1-methyl-3-(trifluoromethyl)-1H-pyrazol-4-yl)amino)pyrimidin-5-yl)-2-(((2S)-1-(1H-tetrazol-1-yl)propan-2-yl)oxy)benzonitrile]
Second: C[C@@H](Cc1ccn[nH]1)Oc1cc(-c2cnc(Nc3cnn(C)c3)nc2)ccc1C#N [Example 412, 4-(2-((1-methyl-1H-pyrazol-4-yl)amino)pyrimidin-5-yl)-2-(((2S)-1-(1H-pyrazol-5-yl)propan-2-yl)oxy)benzonitrile]
The inhibition at 3 µM of the first is higher: 99% for the first, 96% for the second.

With `Cn1cc(Nc2ncc(-c3ccc(C#N)c(O[C@@H](CO)Cn4cccn4)c3)cn2)cn1` [Example 402, 2-(((2R)-1-hydroxy-3-(1H-pyrazol-1-yl)propan-2-yl)oxy)-4-(2-((1-methyl-1H-pyrazol-4-yl)amino)pyrimidin-5-yl)benzonitrile] the inhibition at 3 µM was 82%.
